Patent US11466034B2, “Compound functioning as bromodomain protein inhibitor, and composition” (Betta Pharmaceuticals Co., Ltd., priority 2017, dated 2022)
pIC50: −log10 of the molar value.

How the values were obtained:
BRD4(D1) = BRD4(D1) (Homo sapiens (Human), UniProt O60885); test: Inhibitory activity against BRD4(D1), HTRF assay; assay type: binding
Method: (§1) (+)-JQ1 was used as comparison compound, to evaluated the inhibitory activity of compounds of the invention against BRD4(D1) and BRD4(D2) in vitro.
(§2) The assays of BRD4 (D1) and BRD4 (D2) were conducted in a 384-well polystyrene plate. The test compounds were first serially diluted in DMSO and the test compound/DMSO were transferred to 384-well plates. The final concentration of DMSO in the assay was 0.1%. 2 volumes of protein/peptide mixture were added into 384-well plates, then 2 volumes of assay mixture were added, and shake for 30 s. The plate was incubated at room temperature for 2 h. Then the HTRF signal on EnVision was readed.
(§3) Use equation (1) to fit the date in Excel to obtain the value of the inhibition rate. Inhibition rate (%)=(maximum value−signal value)/(maximum value−minimum value)*100 Equation(1):
(§4) IC50 determination was performed by fitting the data using GraphPad Prism 5.0 software and equation (2). Y=bottom+(Top−bottom)/(1+10^((Log IC50−X)*HillSlope)); Equation(2): wherein, Y represents the percentage of inhibition (%); X represents the concentration of test compounds.
(§5) The IC50 data of the examples were provided in the following table, wherein, A stands for IC50<100 nM; B stands for IC50 is 100-300 nM; C stands for IC50>300 nM.

BRD4(D2) = BRD4(D2) (Homo sapiens (Human), UniProt O60885); test: Inhibitory activity against BRD4(D2), HTRF assay; assay type: binding
Method: as §1, §2, §3, §4, §5

SMILES | pIC50 (BRD4(D1); class symbols) | pIC50 (BRD4(D2); class symbols) | pIC50 (BRD4(D1); numeric values) | pIC50 (BRD4(D2); numeric values)
CCS(=O)(=O)Nc1cc(-c2cn(C)c(=O)c3[nH]ccc23)cc2c1nc(C)n2Cc1ccc(Cl)cc1F [Example 49, N-(2-methyl-6-(6-methyl-7-oxo-6,7-dihydro-1H-pyrrolo[2,3-c]pyridin-4-yl)-1-(2-fluoro-4-chlorobenzyl)-1H-benzo[d]imidazol-4-yl)ethanesulfonamide] | > 7.00 | > 7.00 |  | 
Cc1nc2ncc(-c3cn(C)c(=O)c4[nH]ccc34)nc2n1Cc1ccc(Cl)cc1F [Example 26, 4-(1-(2-fluoro-4-chlorobenzyl)-2-methyl-H-imidazo[4,5-b]pyrazin-6-yl)-6-methyl-H-pyrrolo[2,3-c]pyridin-7(6H)-one] | > 7.00 | > 7.00 |  | 
CCS(=O)(=O)Nc1cc(-c2cn(C)c(=O)c3[nH]ccc23)nc2c1ncn2Cc1cc(C(F)(F)F)ccc1F [Example 61, N-(3-(2-fluoro-5-(trifluoromethyl)benzyl)-5-(6-methyl-7-oxo-6,7-dihydro-H-pyrrolo[2,3-c]pyridin-4-yl)-3H-imidazo[4,5-b]pyridin-7-yl)ethanesulfonamide] | > 7.00 | > 7.00 |  | 
Cc1nc2ncc(-c3cn(C)c(=O)c4[nH]ccc34)nc2n1Cc1ccc(Br)cc1 [Example 32, 4-(1-(4-bromobenzyl)-2-methyl-1H-imidazo[4,5-b]pyrazin-6-yl)-6-methyl-H-pyrrolo[2,3-c]pyridin-7(6H)-one] | > 7.00 | > 7.00 |  | 
COc1ccc(Cn2c(C)nc3ncc(-c4cn(CC(C)C)c(=O)c5[nH]ccc45)cc32)cc1 [Example 11, 6-isobutyl-4-(1-(4-methoxybenzyl)-2-methyl-1H-imidazo[4,5-b]pyridin-6-yl)-1,6-dihydro-7H-pyrrolo[2,3-c]pyridin-7-one] | < 6.52 | 6.52 to 7.00 |  | 
Cc1nc2ncc(-c3cn(C)c(=O)c4[nH]ccc34)nc2n1Cc1ccc(S(C)(=O)=O)cc1 [Example 33, 6-methyl-4-(2-methyl-1-(4-(methylsulfonyl)benzyl)-1H-imidazo[4,5-b]pyrazin-6-yl)-1H-pyrrolo[2,3-c]pyridin-7(6H)-one] | > 7.00 | > 7.00 |  | 
CCS(=O)(=O)Nc1cc(-c2cn(C)c(=O)c3[nH]ccc23)nc2c1ncn2Cc1cc(F)cc(F)c1 [Example 62, N-(3-(3,5-difluorobenzyl)-5-(6-methyl-7-oxo-6,7-dihydro-H-pyrrolo[2,3-c]pyridin-4-yl)-3H-imidazo[4,5-b]pyridin-7-yl)ethanesulfonamide] |  |  | 8.89 | 8.92
CCS(=O)(=O)Nc1cc(-c2cn(C)c(=O)c3[nH]ccc23)cc2c1nc(C)n2Cc1ccc(Cl)c(C(F)(F)F)c1 [Example 50, N-(2-methyl-6-(6-methyl-7-oxo-6,7-dihydro-1H-pyrrolo[2,3-c]pyridin-4-yl)-1-(3-(trifluoromethyl)-4chlorobenzyl)-1H-benzo[d]imidazol-4-yl)ethanesulfonamide] | > 7.00 | > 7.00 |  | 
Cc1nc2ncc(-c3cn(C)c(=O)c4[nH]ccc34)cc2n1Cc1ccccc1 [Example 6, 4-(1-benzyl-2-methyl-1H-imidazo[4,5-b]pyridin-6-yl)-6-methyl-1H-pyrrolo[2,3-c]pyrid in-7(6H)one] |  |  | 8.12 | 8.55
Cc1nc2ncc(-c3cn(C)c(=O)c4[nH]ccc34)cc2n1Cc1ccc(C(F)(F)F)cc1 [Example 4, 6-methyl-4-(2-methyl-1-(4-(trifluoromethyl)benzyl)-1H-imidazo[4,5-b]pyridin-6-yl)-1H-pyrrolo[2,3-c]pyridin-7(6H)-one] |  |  | 7.84 | 8.40
CCS(=O)(=O)Nc1cc(-c2cn(C)c(=O)c3[nH]ccc23)cc2c1nc(C)n2Cc1cc(C(F)(F)F)ccc1F [Example 47, N-(2-methyl-6-(6-methyl-7-oxo-6,7-dihydro-1H-pyrrolo[2,3-c]pyridin-4-yl)-1-(2-fluoro-5-(trifluoromethyl)benzyl)-1H-benzo[d]imidazol-4-yl)ethanesulfonamide] | > 7.00 | > 7.00 |  | 
Cc1nc2ncc(-c3cn(C)c(=O)c4[nH]ccc34)cc2n1C [Example 7, 4-(1,2-dimethyl-1H-imidazo[4,5-b]pyridin-6-yl)-6-methyl-1,6-dihydro-7H-pyrrolo[2,3-c]pyridin-7-one] |  |  | 7.28 | 7.97
Cc1nc2ncc(-c3cn(C)c(=O)c4[nH]ccc34)nc2n1Cc1cc(C(F)(F)F)ccc1F [Example 24, 4-(1-(2-fluoro-5-trifluoromethylbenzyl)-2-methyl-1H-imidazo[4,5-b]pyrazin-6-yl)-6-methyl-1H-pyrrolo[2,3-c]pyridin-7(6H)-one] | > 7.00 | > 7.00 |  | 

More lines, now with the values ahead:

pIC50 (BRD4(D1); class symbols) | pIC50 (BRD4(D2); class symbols) | pIC50 (BRD4(D1); numeric values) | pIC50 (BRD4(D2); numeric values) | SMILES
> 7.00 | > 7.00 |  |  | CCS(=O)(=O)Nc1cc(-c2cn(C)c(=O)c3[nH]ccc23)cc2c1nc(C)n2Cc1ccc(C(F)(F)F)c(Cl)c1 [Example 52, N-(2-methyl-6-(6-methyl-7-oxo-6,7-dihydro-1H-pyrrolo[2,3-c]pyridin-4-yl)-1-(3-chloro-4-(trifluoromethyl)benzyl)-1H-benzo[d]imidazol-4-yl)ethanesulfonamide]
> 7.00 | > 7.00 |  |  | CCS(=O)(=O)Nc1cc(-c2cn(C)c(=O)c3[nH]ccc23)cc2c1nc(C)n2Cc1cc(F)cc(C(F)(F)F)c1 [Example 48, N-(2-methyl-6-(6-methyl-7-oxo-6,7-dihydro-1H-pyrrolo[2,3-c]pyridin-4-yl)-1-(3-fluoro-5-(trifluoromethyl)benzyl)-1H-benzo[d]imidazol-4-yl)ethanesulfonamide]
> 7.00 | > 7.00 |  |  | CCS(=O)(=O)Nc1cc(-c2cn(C)c(=O)c3[nH]ccc23)nc2c1nc(C)n2Cc1ccc(C(F)(F)F)cc1 [Example 65, N-(2-methyl-5-(6-methyl-7-oxo-6,7-dihydro-1H-pyrrolo[2,3-c]pyridin-4-yl)-3-(4-(trifluoromethyl)benzyl)-3H-imidazo[4,5-b]pyridin-7-yl)ethanesulfonamide]
6.52 to 7.00 | 6.52 to 7.00 |  |  | COC(=O)c1ccc(Cn2c(C)nc3ncc(-c4cn(C)c(=O)c5[nH]ccc45)cc32)cc1 [Example 9, methyl 4-((2-methyl-6-(6-methyl-7-oxo-6,7-dihydro-1H-pyrrolo[2,3-c]pyridin-4-yl)-1H-imidazo[4,5-b]pyridin-1-yl)methyl)benzoate]
 |  | 7.35 | 8.28 | Cc1[nH]c2ncc(-c3cn(C)c(=O)c4[nH]ccc34)cc2c1C(C)c1c(Cl)ccc(F)c1Cl (stereo not shown) [Example 35, 4-(3-(1-(2,6-dichloro-3-fluorophenyl)ethyl)-2-methyl-1H-pyrrolo[2,3-b]pyridin-5-yl)-6-methyl-1,6-dihydro-7H-pyrrolo[2,3-c]pyridin-7-one]
6.52 to 7.00 | > 7.00 |  |  | COc1cccc(Cn2c(C)nc3ncc(-c4c[nH]c(=O)c5[nH]c(C)cc45)cc32)c1 [Example 16, 4-(1-(3-methoxybenzyl)-2-methyl-1H-imidazo[4,5-b]pyridin-6-yl)-2-methyl-1,6-dihydro-7H-pyrrolo[2,3-c]pyridin-7-one]
 |  | 8.15 | 8.60 | Cc1nc2ncc(-c3cn(C)c(=O)c4[nH]ccc34)cc2n1Cc1ccc(Cl)cc1 [Example 1, 4-(1-(4-chlorobenzyl)-2-methyl-1H-imidazo[4,5-b]pyridin-6-yl)-6-methyl-1H-pyrrolo[2,3-c]pyridin-7(6H)-one]
> 7.00 | > 7.00 |  |  | Cc1nc2ncc(-c3cn(C)c(=O)c4[nH]ccc34)nc2n1Cc1ccc(C(F)(F)F)c(Cl)c1 [Example 29, 4-(1-(3-chloro-4-trifluoromethylbenzyl)-2-methyl-1H-imidazo[4,5-b]pyrazin-6-yl)-6-methyl-1H-pyrrolo[2,3-c]pyridin-7(6H)-one]
> 7.00 | > 7.00 |  |  | CCS(=O)(=O)Nc1cc(-c2cn(C)c(=O)c3[nH]ccc23)cc2c1nc(C)n2Cc1cccc(C(F)(F)F)c1 [Example 46, N-(2-methyl-6-(6-methyl-7-oxo-6,7-dihydro-1H-pyrrolo[2,3-c]pyridin-4-yl)-1-(3-(trifluoromethyl)benzyl)-1H-benzo[d]imidazol-4-yl)ethanesulfonamide]
< 6.52 | < 6.52 |  |  | Cn1cc(-c2cnc3ncnc(Nc4ccc(Cl)cc4)c3c2)c2cc[nH]c2c1=O [Example 37, 4-(4-((4-chlorophenyl)amino)pyrido[2,3-d]pyrimidin-6-yl)-6-methyl-1,6-dihydro-7H-pyrrolo[2,3-c]pyridin-7-one]
< 6.52 | 6.52 to 7.00 |  |  | COc1ccc(Cn2c(C)nc3ncc(-c4cn(Cc5ccn[nH]5)c(=O)c5[nH]ccc45)cc32)cc1 [Example 15, 4-(1-(4-methoxybenzyl)-2-methyl-1H-imidazo[4,5-b]pyridin-6-yl)-6-(pyrazol-2-methyl)-1,6-dihydro-7H-pyrrolo[2,3-c]pyridin-7-one]
 |  | 7.40 | 8.22 | Cc1nc2ncc(-c3cn(C)c(=O)c4[nH]ccc34)cc2[nH]1 [Example 8, 6-methyl-4-(2-methyl-1H-imidazo[4,5-b]pyridin-6-yl)-1,6-dihydro-7H-pyrrolo[2,3-c]pyridin-7-one]
 |  | 7.82 | 8.54 | Cn1cc(-c2cnc3ccn(Cc4c(Cl)cccc4Cl)c3c2)c2cc[nH]c2c1=O [Example 36, 4-(1-(2,6-dichlorobenzyl)-1H-pyrrolo[3,2-b]pyridin-6-yl)-6-methyl-1,6-dihydro-7H-pyrrolo[2,3-c]pyridin-7-one]
